ChEMBL document CHEMBL6109124, “Identification of effective anti-osteosarcoma agents via screening of an in-house NQO1-targeted compound library” (Bioorg Med Chem, 2025)

Legend:
[1] = Cytotoxicity against HUVEC assessed as cell growth inhibition measured after 72 hrs by MTT assay; format: toxicity, cell-based; conditions: human, HUVEC cells
HOS-TE85 [2] = experiment: Cytotoxicity against human MNNG cells assessed as cell growth inhibition at 10 uM measured after 72 hrs by MTT assay relative to control; format: functional; conditions: read-out: GI
[3] = Selectivity index, ratio of IC50 for cytotoxicity against HUVEC to IC50 for cytotoxicity against human MNNG cells; format: toxicity, cell-based; conditions: HUVEC and human MNNG cells, read-out: Ratio IC50
HOS-TE85 [4] = experiment: Cytotoxicity against human MNNG cells assessed as cell growth inhibition measured after 72 hrs by MTT assay; format: functional, cell-based; conditions: HOS-TE85, 72 h
HOS-TE85 [5] = experiment: Cytotoxicity against human MNNG cells assessed as cell growth inhibition at 1 uM measured after 72 hrs by MTT assay relative to control; format: functional; conditions: read-out: GI

| SMILES | IC50 at 72 h [1] | inhibition of growth at 10 µM (HOS-TE85 [2]) | selectivity ratio [3] | IC50 (HOS-TE85 [4]) | inhibition of growth at 1 µM (HOS-TE85 [5]) |
| --- | --- | --- | --- | --- | --- |
| N#Cc1nc2c(nc1C#N)-c1cc(F)c(F)cc1/C2=N\NC1CCCCC1 | 17.2 µM | 90.4% | 7.73 | 2.22 µM | 31.2% |
| Cc1ccc2c(c1)-c1nc(C#N)c(C#N)nc1C2=O | 3.85 µM | 99.9% | 2.08 | 1.85 µM | 35.4% |
